Assays:
[1] = Pharmacokinetics in mice; type: in vivo; conditions: 20 mg/kg twice-a-day
Method: Compound was formulated in 10/10/80 DMSO/Tween80/Water and administered to mice at either 20 mg/kg by oral gavage or at 25 mg/kg via intraperitoneal injection. Blood was drawn at the indicated times and plasma was generated. Following solid phase extraction, drug levels were quantitated using LC-MSMS.

[2] = tested on: RORβ; assay: Gal4-RORβ co-transfection promoter-reporter assay; type: cell-based; conditions: Gal4 assay format
Method: (§1) Reporter gene assays: Twenty-four hours before transfection, HEK293T cells were plated in 96-well plates at a density of 15×10^3 cells per well. UAS:luciferase reporter and Ga14-RORa, Gal4-RORb, Gal4-RORγ, Gal4-LXRα, or Gal4 PPARγ DNA co-transfections were performed using X-tremeGENE 9 (Roche). Twenty-four hours after transfection, the cells were treated with vehicle or compound. Twenty-four hours after treatment, the luciferase activity was measured using the Dual-Glo luciferase assay system (Promega). Results were analyzed using GraphPad Prism software.

[3] = tested on: RORα; assay: Gal4-RORα co-transfection promoter-reporter assay; type: cell-based; conditions: Gal4 assay format
Method: as §1

[4] = Tolerability following chronic administration; type: in vivo
[5] = tested on: EL4 cells; assay: RORγ target gene expression in PMA/ionomycin stimulated EL4 cells; type: cell-based; conditions: PMA and ionomycin, compound at 10 μM
Description: FIG. 1D is a graph showing PPARγ target genes (aP2 and CD36) expression in OP9 cells with and without MDI (IBMX, dexamethasone, insulin) treatment. […] Specific residues driving the interaction labelled and shown as sticks as well. […] Quantitative RT-PCR: Total RNA was extracted from EL4 or RAW264.7 cells using RNeasy Plus Micro Kit (Qiagen) and the RNA was reverse transcribed using the ABI reverse transcription kit (Applied Biosystems/Thermo Fisher Scientific, Waltham MA). Quantitative PCR was performed with a 7900HT Fast Real Time PCR System (Applied Biosystems) using SYBR green (Roche).

## Cc1cc(CN2CCN(Cc3ccncc3)CC2)ccc1-c1ccc(C(O)(C(F)(F)F)C(F)(F)F)cc1 [SR1903, 1,1,1,3,3,3-hexafluoro-2-(2′-methyl-4′-((4-(pyridin-4-ylmethyl)piperazin-1-yl)methyl)-[1,1′-biphenyl]-4-yl)propan-2-ol]
[1]
  plasma exposure relative to IC50: sufficient to have compound levels above its IC50
[2]
  activity on RORβ: lack activity
[3]
  activity on RORα: lack activity
[4]
  tolerability: very well tolerated
[5]
  IL17A expression: repressed
  IL17F expression: repressed
